# Counter-ions that a name gives are not always drawn.
# Target: T1, Tau P301L (Homo sapiens, UniProt P10636, P618L)
# T1 construct: expressed in transfected cells
# Assay: In vitro tau degradation assay in CHOK1 Tau P301L cells (sarkosyl insoluble tau, WES)
# Format: cell-based
# Details: CHO-K1; remaining tau protein in sarkosyl insoluble pellet; CHOK1 Tau P301L cells treated 48 hours with test compound at 1 μM, doxycycline removed for the last 24 hours; relative to DMSO doxycycline control; read-out: Tau Protein Degradation effect at 1 μM
# Description: Exemplary bifunctional molecules of the present disclosure are represented by the structures in Table 1, which includes associated data. In vitro tau protein degradation data in CHOK1 Tau P301L cells, as described below, is reported based on the remaining tau protein in the sarkosyl insoluble pellet following treatment of cells for 48 hours with test compound at the 1 μM concentration where the last 24 hours doxycycline was removed. The data are represented relative to DMSO doxycycline control: • A ≤50% of tau protein remaining (>50% of tau protein degraded) • B >50% of tau protein remaining ([…] of tau protein degraded)
# Data for compounds in Table 1 was generated using in vitro tau Degradation Assay protocol as described in Methods for FIGS. 2A and 2B below.
# FIGS. 2A and 2B. (2A) Tau expression was induced by addition (+) of doxycycline (1 μg/ml) to ChoK1-Tau P301L clone D1.
# In vitro tau Degradation Assay for FIGS. 2A and 2B. T-Rex CHOK1 cells are maintained in Ham's F-12 Nutrient Mix (ThermoFisher) plus 10% Fetal Bovine Serum Tetracycline Negative (Corning) with 10 ug/mL Blasticidin S HCl (Gibco) and 200 ug/mL Zeocin (100 mg/mL, Invitrogen). A stable clone expressing Tau P301L in the presence of doxycycline (1 μg/ml), clone D1 was selected. Compounds were diluted to indicated concentrations and used to treat cells for the indicated times. Cells were harvested from either 96, 24, 6, or 10 cm dishes coated with Poly-D-Lysine (Corning) in ice cold PBS or Buffer H+HALT Protease and phosphatase inhibitors (Thermofisher). Sarkosyl Insoluble tau was isolated as described in Eckermann et al. and Greenberg and Davies, accordingly. WES™ capillary electrophoresis analysis was performed on the Sarkosyl Insoluble tau fraction using Tau1 antibody (Milipore) unless otherwise indicated, as specified in the manufacturers specification (ProteinSimple).
# T1 sequence (P10636 1-441 isoform P10636-8 P301L): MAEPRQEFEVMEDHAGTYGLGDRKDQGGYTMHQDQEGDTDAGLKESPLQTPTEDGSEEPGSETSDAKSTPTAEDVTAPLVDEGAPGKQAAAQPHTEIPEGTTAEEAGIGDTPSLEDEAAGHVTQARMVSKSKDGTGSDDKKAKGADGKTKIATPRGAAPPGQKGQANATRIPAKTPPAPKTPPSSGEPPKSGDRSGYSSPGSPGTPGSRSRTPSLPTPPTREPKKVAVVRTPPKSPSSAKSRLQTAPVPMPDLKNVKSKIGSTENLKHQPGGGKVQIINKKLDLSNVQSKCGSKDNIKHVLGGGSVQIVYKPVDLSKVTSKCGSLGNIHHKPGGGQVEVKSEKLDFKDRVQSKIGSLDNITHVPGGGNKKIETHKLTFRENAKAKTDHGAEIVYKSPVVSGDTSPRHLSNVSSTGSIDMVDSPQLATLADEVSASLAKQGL
row,SMILES,remaining activity at 1 µM [%]
1,"Cc1ncsc1-c1ccc([C@H](C)NC(=O)[C@@H]2C[C@@H](O)CN2C(=O)[C@H](c2cc(OCCN3CCC(O[C@H]4C[C@H](Oc5ccc(-c6ccc7c8cnccc8n(C)c7c6)cn5)C4)CC3)no2)C(C)C)cc1 [Compound 399, (2S,4R)-4-hydroxy-1-((S)-3-methyl-2-(3-(2-(4-((1r,3S)-3-((5-(5-methyl-5H-pyrido[4,3-b]indol-7-yl)pyridin-2-yl)oxy)cyclobutoxy)piperidin-1-yl)ethoxy)isoxazol-5-yl)butanoyl)-N-((S)-1-(4-(4-methylthiazol-5-yl)phenyl)ethyl) pyrrolidine-2-carboxamide]",> 50
2,"O=C1CCC(N2C(=O)c3ccc(N4CCN(CCC5CCN(c6ccc(-c7ccc8c(c7)[nH]c7ccncc78)cn6)CC5)CC4)cc3C2=O)C(=O)N1 (stereo not shown) [Compound 400, 2-(2,6-dioxopiperidin-3-yl)-5-(4-[2-[1-(5-[5H-pyrido[4,3-b]indol-7-yl]pyridin-2-yl)piperidin-4-yl]ethyl]piperazin-1-yl)isoindole-1,3-dione]",< 50
3,"Cn1c2ccncc2c2ccc(-c3ccc(O[C@H]4C[C@H](N(C)C5CC6(C5)CN(CCC5CCN(c7ccc8c(c7)C(=O)N(C7CCC(=O)NC7=O)C8=O)CC5)C6)C4)nc3)cc21 (stereo partly shown) [Compound 401, 2-(2,6-dioxopiperidin-3-yl)-5-(4-(2-(6-(methyl((1r,3r)-3-((5-(5-methyl-5H-pyrido[4,3-b]indol-7-yl)pyridin-2-yl)oxy)cyclobutyl)amino)-2-azaspiro[3.3]heptan-2-yl)ethyl)piperidin-1-yl) isoindoline-1,3-dione]",< 50
4,"Cn1c2ccncc2c2ccc(-c3ccc(N4CC(OC5CCN(CCOc6ccc7c(c6)C(=O)N(C6CCC(=O)NC6=O)C7=O)CC5)C4)nc3)cc21 (stereo not shown) [Compound 416, 2-(2,6-dioxopiperidin-3-yl)-5-[2-(4-[[1-(5-[5-methylpyrido[4,3-b]indol-7-yl]pyridin-2-yl)azetidin-3-yl]oxy]piperidin-1-yl)ethoxy]isoindole-1,3-dione]",< 50
5,"Cn1c2ccncc2c2ccc(-c3ccc(OCCOCCOCCOc4ccc5c(c4)C(=O)N(C4CCC(=O)NC4=O)C5=O)nc3)nc21 (stereo not shown) [Compound 419, 2-(2,6-dioxopiperidin-3-yl)-5-(2-(2-(2-((5-(9-methyl-9H-pyrrolo[2,3-b:4,5-c′]dipyridin-2-yl)pyridin-2-yl)oxy)ethoxy)ethoxy)ethoxy)isoindoline-1,3-dione]",> 50
6,"Cn1c2ccncc2c2ccc(-c3ccc(OC4CN(C5CCN(CCCCCOc6ccc7c(c6)C(=O)N(C6CCC(=O)NC6=O)C7=O)CC5)C4)nc3)cc21 (stereo not shown) [Compound 424, 2-(2,6-dioxopiperidin-3-yl)-5-((5-(4-(3-((5-(5-methyl-5H-pyrido[4,3-b]indol-7-yl)pyridin-2-yl)oxy)azetidin-1-yl)piperidin-1-yl)pentyl)oxy) isoindoline-1,3-dione]",> 50
7,O=C1CCC(N2C(=O)c3ccc(OCCOCCOCCN4CCC(c5ccc6c(c5)[nH]c5ccncc56)CC4)cc3C2=O)C(=O)N1 (stereo not shown) [Compound 431],> 50
8,"CC(C)N(CCCCOc1ccc2c(c1)C(=O)N(C1CCC(=O)NC1=O)C2=O)[C@H]1CC[C@H](O[C@H]2C[C@H](Oc3ccc(-c4ccc5c6cnccc6n(C)c5c4)cn3)C2)CC1 (stereo partly drawn) [Compound 436, 2-(2,6-dioxopiperidin-3-yl)-5-(4-(isopropyl((1R,4r)-4-((1r,3R)-3-((5-(5-methyl-5H-pyrido[4,3-b]indol-7-yl)pyridin-2-yl)oxy)cyclobutoxy)cyclohexyl)amino)butoxy)isoindoline-1,3-dione]",< 50
9,"CN(C)c1ccn2cc(-c3ccc(OCCOCCOCCOc4ccc5c(c4)C(=O)N(C4CCC(=O)NC4=O)C5=O)cc3)nc2c1 (stereo not shown) [Compound 440, 5-(2-(2-(2-(4-(7-(dimethylamino)imidazo [1,2-a]pyridin-2-yl)phenoxy)ethoxy)ethoxy)ethoxy)-2-(2,6-dioxopiperidin-3-yl)isoindoline-1,3-dione]",> 50
10,"O=C1CCC(N2C(=O)c3ccc(OCCCCCN4CCC(OC5CN(c6ncc(-c7ccc8c9cnccc9n(C(F)F)c8c7)cc6C(F)(F)F)C5)CC4)cc3C2=O)C(=O)N1 (stereo not shown) [Compound 442, 5-[5-[14-[1-[5-[5-(Difluoromethyl)pyrido[4,3-b]indol-7-yl]-3-(trifluoromethyl)-2-pyridyl]azetidin-3-yl]oxy-1-piperidyl]pentoxy]-2-(2,6-dioxo-3-piperidyl)isoindoline-1,3-dione formate]",< 50
11,"Cn1c2ccncc2c2ccc(-c3ccc(N4CC(C(=O)N5CCN(CCCCCOc6ccc7c(c6)C(=O)N(C6CCC(=O)NC6=O)C7=O)CC5)C4)nc3)cc21 (stereo not shown) [Compound 446, 2-(2,6-dioxopiperidin-3-yl)-5-((5-(4-(1-(5-(5-methyl-5H-pyrido[4,3-b]indol-7-yl)pyridin-2-yl)azetidine-3-carbonyl)piperazin-1-yl)pentyl)oxy) isoindoline-1,3-dione]",> 50
12,"Cc1cnc(Nc2ccc3cnccc3c2)cc1N1CCC(CCN2CCN(c3ccc4c(c3)C(=O)N(C3CCC(=O)NC3=O)C4=O)CC2)CC1 (stereo not shown) [Compound 447, 2-(2,6-dioxopiperidin-3-yl)-5-(4-(2-(1-(2-(isoquinolin-6-ylamino)-5-methylpyridin-4-yl)piperidin-4-yl)ethyl)piperazin-1-yl)isoindoline-1,3-dione]",< 50
13,"O=C1CCC(N2C(=O)c3ccc(OCCCCCN4CCC(OC5CN(c6ccc(-c7ccn8c(n7)nc7ccccc78)cn6)C5)CC4)cc3C2=O)C(=O)N1 (stereo not shown) [Compound 450, 2-(2,6-dioxo-3-piperidyl)-5-[5-[4-[1-(5-pyrimido[1,2-a]benzimidazol-2-yl-2-pyridyl)azetidin-3-yl]oxy-1-piperidyl]pentoxy]isoindoline-1,3-dione formate]",< 50
14,"N#Cc1cc(-c2ccc3c4cnccc4n(C(F)F)c3c2)cnc1N1CCC(CCN2CCN(c3ccc4c(c3)C(=O)N(C3CCC(=O)NC3=O)C4=O)CC2)CC1 (stereo not shown) [Compound 454, 5-(5-(difluoromethyl)-5H-pyrido[4,3-b]indol-7-yl)-2-(4-(2-(4-(2-(2,6-dioxopiperidin-3-yl)-1,3-dioxoisoindolin-5-yl)piperazin-1-yl)ethyl)piperidin-1-yl)nicotinonitrile]",< 50
15,"Cn1c2ccncc2c2ccc(-c3ccc(OC4CC5(C4)CN(C(=O)CN4CCN(CC6CN(c7ccc8c(c7)C(=O)N(C7CCC(=O)NC7=O)C8=O)C6)CC4)C5)nc3)cc21 (stereo not shown) [Compound 458, 2-(2,6-dioxopiperidin-3-yl)-5-(3-((4-(2-(6-((5-(5-methyl-5H-pyrido[4,3-b]indol-7-yl)pyridin-2-yl)oxy)-2-azaspiro [3.3]heptan-2-yl)-2-oxoethyl)piperazin-1-yl)methyl)azetidin-1-yl)isoindoline-1,3-dione]",> 50
16,"O=C1CCC(N2C(=O)c3ccc(OCCN4CC5(C4)CN(C[C@H]4C[C@H](OC6CCN(c7ccn8c(n7)nc7ccccc78)CC6)C4)C5)cc3C2=O)C(=O)N1 (stereo partly shown) [Compound 460, 5-(2-(6-(((1r,3r)-3-((1-(benzo[4,5]imidazo[1,2-a]pyrimidin-2-yl)piperidin-4-yl)oxy)cyclobutyl)methyl)-2,6-diazaspiro[3.3]heptan-2-yl)ethoxy)-2-(2,6-dioxopiperidin-3-yl)isoindoline-1,3-dione]",> 50
